# Laboratory results as given in PubChem BioAssay AID330 (DTP/NCI, 2004).
# Values joined by “and” are separate entries in the source; they are usually repeats but may differ in a detail not shown here. Equal values may be shown once. Inconclusive results and toxic doses are left out.
# Test system: P388 leukemia ip, CD2F1 mice, survival T/C
# Experiment: NCI In Vivo Anticancer Drug Screen. Data for tumor model P388 Leukemia (intraperitoneal) in CD2F1 (CDF1) mice
# Conditions: endpoint: median survival time, higher = longer survival
# In short: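 Mice carrying the transplanted tumor received test compound or vehicle. Survival was recorded in each group, and the value is the treated-group measurement divided by that of the vehicle-treated control group.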
# [1] = dose: 50.0 mg/kg/injection, schedule: Q01DX009 (ip), vehicle: saline
# [2] = dose: 100.0 mg/kg/injection, schedule: Q01DX009 (ip), vehicle: saline
# [3] = dose: 200.0 mg/kg/injection, schedule: Q01DX009 (ip), vehicle: saline
# [4] = dose: 60.0 mg/kg/injection, schedule: Q01DX005 (ip), vehicle: saline with Tween-80
# [5] = dose: 120.0 mg/kg/injection, schedule: Q01DX005 (ip), vehicle: saline with Tween-80
# [6] = dose: 240.0 mg/kg/injection, schedule: Q01DX005 (ip), vehicle: saline with Tween-80
# [7] = dose: 6.25 mg/kg/injection, schedule: Q01DX009 (ip), vehicle: saline with Tween-80
# [8] = dose: 12.5 mg/kg/injection, schedule: Q01DX009 (ip), vehicle: saline with Tween-80
# [9] = dose: 25.0 mg/kg/injection, schedule: Q01DX009 (ip), vehicle: saline with Tween-80
# [10] = dose: 50.0 mg/kg/injection, schedule: Q01DX005 (ip), vehicle: Klucel (hydroxypropylcellulose) (HPC)
# [11] = dose: 100.0 mg/kg/injection, schedule: Q01DX005 (ip), vehicle: Klucel (hydroxypropylcellulose) (HPC)
# [12] = dose: 200.0 mg/kg/injection, schedule: Q01DX005 (ip), vehicle: Klucel (hydroxypropylcellulose) (HPC)
# [13] = dose: 50.0 mg/kg/injection, schedule: Q01DX009 (ip), vehicle: saline with Tween-80
# [14] = dose: 100.0 mg/kg/injection, schedule: Q01DX009 (ip), vehicle: saline with Tween-80
# [15] = dose: 50.0 mg/kg/injection, schedule: Q01DX005 (ip), vehicle: saline with Tween-80
# [16] = dose: 100.0 mg/kg/injection, schedule: Q01DX005 (ip), vehicle: saline with Tween-80
# [17] = dose: 200.0 mg/kg/injection, schedule: Q01DX005 (ip), vehicle: saline with Tween-80
structure (smiles),measurement,setting,value
CC1(C)OC(CC(=O)O)C23COC(C(=O)C4(C)C2CCC2(C)C(C5CCOC5)OC(=O)C5OC524)C13 (stereo not drawn),T/C,"dose: 0.5 mg/kg/injection, schedule: Q01DX009 (ip), vehicle: saline + alcohol",103 % of control
same,T/C,"dose: 1.0 mg/kg/injection, schedule: Q01DX009 (ip), vehicle: saline + alcohol",101 % of control
same,T/C,"dose: 2.0 mg/kg/injection, schedule: Q01DX009 (ip), vehicle: saline + alcohol",100 % of control
same,T/C,"dose: 4.0 mg/kg/injection, schedule: Q01DX009 (ip), vehicle: saline + alcohol",103 % of control
O=C(Oc1ccc[nH]c1=O)C12CC3CC(CC(C3)C1)C2,T/C,[1],101 % of control
same,T/C,[2],100 % of control
same,T/C,[3],98 % of control and 94 % of control
same,T/C,"dose: 400.0 mg/kg/injection, schedule: Q01DX009 (ip), vehicle: saline",99 % of control and 93 % of control
CC1=CCC2C(=O)N(c3cc(C)on3)C(=O)C2C1 (stereo not drawn),T/C,[4],97 % of control
same,T/C,[5],100 % of control
same,T/C,[6],90 % of control
CCCCCCCCCCCCCCCCOCC(COP(=O)([O-])OCC[N+](C)(C)C)OCCCCCCCCCCCCCCCC (stereo not drawn),T/C,[4],97 % of control
same,T/C,[5],100 % of control
same,T/C,[6],104 % of control
CC(C)S.[Cu+2],T/C,[7],114 % of control
same,T/C,[8],97 % of control
same,T/C,[9],109 % of control
O=C(/C=C/c1ccccc1)c1ccccc(=O)c1O,T/C,[10],105 % of control
same,T/C,[11],113 % of control
same,T/C,[12],104 % of control
COc1ccc(C[n+]2cc([O-])on2)cc1,T/C,[7],100 % of control
same,T/C,[8],100 % of control
same,T/C,[9],100 % of control and 104 % of control and 95 % of control
same,T/C,[13],122 % of control
same,T/C,"dose: 66.0 mg/kg/injection, schedule: Q01DX009 (ip), vehicle: saline with Tween-80",118 % of control and 122 % of control
CC1COS(=O)(=O)CS(=O)(=O)O1 (stereo not drawn),T/C,[4],100 % of control
Nc1ccc2c(SCCCCSc3c4ccccc4nc4cc(N)ccc34)c3ccccc3nc2c1,T/C,[4],106 % of control
same,T/C,[5],100 % of control
Cc1cccc(C)c1NC1c2ccccc2C=Cc2ccccc21,T/C,[13],87 % of control
same,T/C,[14],89 % of control
Nc1nnc(-c2ccc[n+]([O-])c2)o1,T/C,[4],96 % of control
same,T/C,[5],102 % of control
same,T/C,[6],105 % of control
CCCCCCCC[As](CCCCCCCC)SCC1OC(OC(C)=O)C(OC(C)=O)C(OC(C)=O)C1OC(C)=O (stereo not drawn),T/C,[13],101 % of control
same,T/C,[14],96 % of control
same,T/C,"dose: 200.0 mg/kg/injection, schedule: Q01DX009 (ip), vehicle: saline with Tween-80",99 % of control
[CH3][Ge]([O][Ge]([CH3])([c]1ccccc1)[c]1ccccc1)([c]1ccccc1)[c]1ccccc1,T/C,[1],102 % of control
same,T/C,[2],93 % of control
same,T/C,[3],92 % of control
CC1=CC2(C)C3C=C(C)C(C2C(=O)C1=O)C(C)(O)C3=O (stereo not drawn),T/C,[15],97 % of control
same,T/C,[16],106 % of control
same,T/C,[17],106 % of control
CNC(=O)O/N=C(\SC)C(=O)N(C)C,T/C,"dose: 0.87 mg/kg/injection, schedule: Q01DX005 (ip), vehicle: saline",102 % of control
same,T/C,"dose: 1.75 mg/kg/injection, schedule: Q01DX005 (ip), vehicle: saline",100 % of control
COc1ccccc1-n1c(Cc2cccc3ccccc23)n[nH]c1=S,T/C,[10],99 % of control
same,T/C,[11],100 % of control
same,T/C,[12],99 % of control
CC(CCC(=O)O)(c1ccc(OC(=O)Nc2ccc([N+](=O)[O-])cc2)cc1)c1ccc(OC(=O)Nc2ccc([N+](=O)[O-])cc2)cc1,T/C,[15],111 % of control
same,T/C,[16],96 % of control
same,T/C,[17],93 % of control
COc1ccc(C(=O)NC(C(N)=O)C(N)=O)cc1,T/C,"dose: 100.0 mg/kg/injection, schedule: Q04DX003 (ip), vehicle: saline",99 % of control
same,T/C,"dose: 200.0 mg/kg/injection, schedule: Q04DX003 (ip), vehicle: saline",99 % of control
same,T/C,"dose: 400.0 mg/kg/injection, schedule: Q04DX003 (ip), vehicle: saline",97 % of control
